Patent publication US10072011B2, “Substituted bridged urea analogs as sirtuin modulators” (GlaxoSmithKline Intellectual Property (No.2) Limited, priority 2014, dated 2018)
Where two headings read alike, the source gives them in different places.

Molecular target: T1, SIRT1 (Homo sapiens, UniProt Q96EB6)
T1 sequence (Q96EB6 1-747): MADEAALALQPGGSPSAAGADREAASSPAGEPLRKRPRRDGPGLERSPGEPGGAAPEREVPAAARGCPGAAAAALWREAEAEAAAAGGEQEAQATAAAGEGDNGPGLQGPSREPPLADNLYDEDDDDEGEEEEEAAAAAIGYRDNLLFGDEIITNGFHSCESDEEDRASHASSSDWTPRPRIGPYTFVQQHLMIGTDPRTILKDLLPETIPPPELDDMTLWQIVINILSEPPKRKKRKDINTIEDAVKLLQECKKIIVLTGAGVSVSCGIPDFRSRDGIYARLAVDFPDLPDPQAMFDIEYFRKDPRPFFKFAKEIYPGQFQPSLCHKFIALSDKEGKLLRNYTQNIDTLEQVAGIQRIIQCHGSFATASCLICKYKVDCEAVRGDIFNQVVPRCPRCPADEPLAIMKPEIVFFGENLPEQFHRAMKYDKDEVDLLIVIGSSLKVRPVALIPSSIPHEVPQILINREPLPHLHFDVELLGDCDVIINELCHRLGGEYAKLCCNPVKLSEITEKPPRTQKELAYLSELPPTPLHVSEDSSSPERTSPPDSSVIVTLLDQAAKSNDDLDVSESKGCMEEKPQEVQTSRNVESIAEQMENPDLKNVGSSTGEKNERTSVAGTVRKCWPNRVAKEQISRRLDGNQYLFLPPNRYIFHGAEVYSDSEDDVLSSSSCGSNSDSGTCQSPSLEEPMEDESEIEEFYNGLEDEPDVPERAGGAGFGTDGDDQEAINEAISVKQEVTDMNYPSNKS
Experiment: Trp mass spectrometry assay of SIRT1 activation (Ac-R-H-K-K(Ac)-W-NH2 peptide)
Type: biochemical
Settings: for Emax: 25 min, read-out: TRP MAX RESP (percent maximum fold activation)
In short: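 Mass spectrometry read-out (OAADPR formed, or deacetylated Trp peptide) after a 25 min NAD-dependent deacetylation by E. coli-expressed His-SIRT1, stopped with formic acid.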

[1] = Trp peptide 0.5 μM, 120 μM βNAD+, 10 nM SIRT1, 25 min at 25° C.
[2] = Trp peptide 0.5 μM, 120 μM βNAD+, 10 nM SIRT1, 25 min at 25° C., relative to control (100%)

| SMILES | TRP Activity (EC1.5, concentration of test compound that results in 150% activation of SIRT1) [1] | TRP MAX RESP (percent maximum fold activation) [2] | Emax [2] [%] | Emax [%] |
| --- | --- | --- | --- | --- |
| CC(C)(CO)NC(=O)c1ccc2c(n1)N(C(=O)Nc1ccccn1)[C@H]1CCN2C1 [Example 200, (4S)—N7-(1-hydroxy-2-methylpropan-2-yl)-N5-(pyridin-2-yl)-3,4-dihydro-1,4-methanopyrido[2,3-b][1,4]diazepine-5,7(2H)-dicarboxamide] | B (EC1.5 1-25 μM) |  | > 150 |  |
| CC(C)(C)CNC(=O)c1ccc2c(n1)N(C(=O)Nc1ccc(F)cn1)[C@H]1CCN2C1 [Example 73, (4S)—N5-(5-fluoropyridin-2-yl)-N7-neopentyl-3,4-dihydro-1,4-methanopyrido[2,3-b][1,4]diazepine-5,7(2H)-dicarboxamide] | A (EC1.5<1 μM) |  | > 150 |  |
| CN(C)CCOc1ccnc(NC(=O)N2c3nc(C(=O)NCC(F)(F)F)ccc3N3CC[C@H]2C3)c1 [Example 227, (4S)—N5-(4-(2-(dimethylamino)ethoxy)pyridin-2-yl)-N7-(2,2,2-trifluoroethyl)-3,4-dihydro-1,4-methanopyrido[2,3-b][1,4]diazepine-5,7(2H)-dicarboxamide] | B (EC1.5 1-25 μM) |  | > 150 |  |
| C[C@@H](NC(=O)c1ccc2c(n1)N(C(=O)Nc1cc(-c3ccn(C)n3)ccn1)[C@H]1CCN2C1)C(F)(F)F [Example 85, (4S)—N5-(4-(1-methyl-1H-pyrazol-3-yl)pyridin-2-yl)-N7-((R)-1,1,1-trifluoropropan-2-yl)-3,4-dihydro-1,4-methanopyrido[2,3-b][1,4]diazepine-5,7(2H)-dicarboxamide] | A (EC1.5<1 μM) |  | > 150 |  |
| Cc1nc(NC(=O)N2c3nc(C(=O)NC4CC4)ccc3N3CC[C@H]2C3)ccc1F [Example 205, (4S)—N7-cyclopropyl-N5-(5-fluoro-6-methylpyridin-2-yl)-3,4-dihydro-1,4-methanopyrido[2,3-b][1,4]diazepine-5,7(2H)-dicarboxamide] | B (EC1.5 1-25 μM) |  | > 150 |  |
| C[C@@H](NC(=O)c1ccc2c(n1)N(C(=O)Nc1ncc(OC[C@@H](O)CO)cn1)[C@H]1CCN2C1)C(F)(F)F [Example 177, (4S)—N5-(5-((S)-2,3-dihydroxypropoxy)pyrimidin-2-yl)-N7-((R)-1,1,1-trifluoropropan-2-yl)-3,4-dihydro-1,4-methanopyrido[2,3-b][1,4]diazepine-5,7(2H)-dicarboxamide] | B (EC1.5 1-25 μM) |  | > 150 |  |
| Cc1nn(C)cc1-c1ccnc(NC(=O)N2c3nc(C(=O)N[C@H](C)C(F)(F)F)ccc3N3CC[C@H]2C3)c1 [Example 84, (4S)—N5-(4-(1,3-dimethyl-1H-pyrazol-4-yl)pyridin-2-yl)-N7-((R)-1,1,1-trifluoropropan-2-yl)-3,4-dihydro-1,4-methanopyrido[2,3-b][1,4]diazepine-5,7(2H)-dicarboxamide] | A (EC1.5<1 μM) |  | > 150 |  |
| C[C@@H](NC(=O)c1ccc2c(n1)N(C(=O)Nc1cc(C(=O)NCCO)ccn1)[C@H]1CCN2C1)C(F)(F)F [Example 131, (4S)—N5-(4-((2-hydroxyethyl)carbamoyl)pyridin-2-yl)-N7-((R)-1,1,1-trifluoropropan-2-yl)-3,4-dihydro-1,4-methanopyrido[2,3-b][1,4]diazepine-5,7(2H)-dicarboxamide] | A (EC1.5<1 μM) |  | > 150 |  |
| NC(CNC(=O)c1ccc2c(n1)N(C(=O)Nc1ccccn1)[C@H]1CCN2C1)C(F)(F)F (single isomer, unassigned) [Example 49] | B (EC1.5 1-25 μM) |  | > 150 |  |
| O=C(NCc1cccnc1)c1ccc2c(n1)N(C(=O)Nc1cc(OC[C@H](O)CO)ccn1)[C@H]1CCN2C1 [Example 226, (4S)—N5-(4-((R)-2,3-dihydroxypropoxy)pyridin-2-yl)-N7-(pyridin-3-ylmethyl)-3,4-dihydro-1,4-methanopyrido[2,3-b][1,4]diazepine-5,7(2H)-dicarboxamide] | B (EC1.5 1-25 μM) |  | > 150 |  |
| COc1cc(C(=O)NCC(F)(F)F)nc2c1N1CC[C@@H](C1)N2C(=O)Nc1ccccn1 [Example 286, (4S)-9-methoxy-N5-(pyridin-2-yl)-N7-(2,2,2-trifluoroethyl)-3,4-dihydro-1,4-methanopyrido[2,3-b][1,4]diazepine-5,7(2H)-dicarboxamide] | A (EC1.5<1 μM) |  |  | > 150 |
| C[C@@H](NC(=O)c1ccc2c(n1)N(C(=O)Nc1cc[nH]n1)[C@H]1CCN2C1)C(F)(F)F [Example 68, (4S)—N5-(1H-pyrazol-3-yl)-N7-((R)-1,1,1-trifluoropropan-2-yl)-3,4-dihydro-1,4-methanopyrido[2,3-b][1,4]diazepine-5,7(2H)-dicarboxamide] | A (EC1.5<1 μM) |  | > 150 |  |
| C[C@@H](NC(=O)c1ccc2c(n1)N(C(=O)Nc1ccsn1)[C@H]1CCN2C1)C(F)(F)F [Example 190, (4S)—N5-(isothiazol-3-yl)-N7-((R)-1,1,1-trifluoropropan-2-yl)-3,4-dihydro-1,4-methanopyrido[2,3-b][1,4]diazepine-5,7(2H)-dicarboxamide] | A (EC1.5<1 μM) |  | > 150 |  |
| CC(C)(C)NC(=O)c1ccc2c(n1)N(C(=O)Nc1ccccn1)[C@H]1CCN2C1 [Example 48, (4S)—N7-(tert-butyl)-N5-(pyridin-2-yl)-3,4-dihydro-1,4-methanopyrido[2,3-b][1,4]diazepine-5,7(2H)-dicarboxamide] | B (EC1.5 1-25 μM) |  | > 150 |  |

More lines, main results first:

| TRP Activity (EC1.5, concentration of test compound that results in 150% activation of SIRT1) [1] | TRP MAX RESP (percent maximum fold activation) [2] | Emax [2] [%] | SMILES | Emax [%] |
| --- | --- | --- | --- | --- |
| B (EC1.5 1-25 μM) | B (Fold Activation<150%) |  | C=CCNC(=O)c1ccc2c(n1)N(C(=O)Nc1cc(OC[C@H](O)CO)ccn1)[C@H]1CCN2C1 [Example 315, (4S)—N7-allyl-N5-(4-((R)-2,3-dihydroxypropoxy)pyridin-2-yl)-3,4-dihydro-1,4-methanopyrido[2,3-b][1,4]diazepine-5,7(2H)-dicarboxamide] |  |
| A (EC1.5<1 μM) | B (Fold Activation<150%) |  | COc1cc(NC(=O)N2c3nc(C(=O)NC4CC4(F)F)ccc3N3CC[C@H]2C3)ncn1 (single isomer, unassigned) [Example 303] |  |
| A (EC1.5<1 μM) |  | > 150 | C[C@@H](NC(=O)c1nc2c(cc1F)N1CC[C@@H](C1)N2C(=O)Nc1cc(OC[C@H](O)CO)ccn1)C(F)(F)F [Example 283, (4S)—N5-(4-((R)-2,3-dihydroxypropoxy)pyridin-2-yl)-8-fluoro-N7-((R)-1,1,1-trifluoropropan-2-yl)-3,4-dihydro-1,4-methanopyrido[2,3-b][1,4]diazepine-5,7(2H)-dicarboxamide] |  |
| B (EC1.5 1-25 μM) |  | > 150 | Cc1cccnc1NC(=O)N1c2nc(C(=O)N[C@H](C)C(F)(F)F)ccc2N2CC[C@H]1C2 [Example 247, (4S)—N5-(3-methylpyridin-2-yl)-N7-((R)-1,1,1-trifluoropropan-2-yl)-3,4-dihydro-1,4-methanopyrido[2,3-b][1,4]diazepine-5,7(2H)-dicarboxamide] |  |
| A (EC1.5<1 μM) |  | < 150 | C[C@@H](NC(=O)c1ccc2c(n1)N(C(=O)Nc1cc(-c3cnn[nH]3)ccn1)[C@H]1CCN2C1)C(F)(F)F [Example 296, (4S)—N5-(4-(1H-1,2,3-triazol-5-yl)pyridin-2-yl)-N7-((R)-1,1,1-trifluoropropan-2-yl)-3,4-dihydro-1,4-methanopyrido[2,3-b][1,4]diazepine-5,7(2H)-dicarboxamide] |  |
| A (EC1.5<1 μM) |  | > 150 | Cc1nc(NC(=O)N2c3nc(C(=O)N[C@H](C)C(F)(F)F)ccc3N3CC[C@H]2C3)ccc1F [Example 269, (4S)—N5-(5-fluoro-6-methylpyridin-2-yl)-N7-((R)-1,1,1-trifluoropropan-2-yl)-3,4-dihydro-1,4-methanopyrido[2,3-b][1,4]diazepine-5,7(2H)-dicarboxamide] |  |
